Assay results from patent publication US11879145B2, “Reagents and methods for replication, transcription, and translation in semi-synthetic organisms” (The Scripps Research Institute, priority 2019, dated 2024).

Test system: sfGFP^151(AXC)
Test: Optimization of unnatural ribonucleotide triphosphate concentrations (sfGFP fluorescence and protein shift)
Type: cell-based, E. coli
Method: Examples 1A, 1B, and 2 identified dCNMO-dTPT3 as a competent UBP for the storage of information, and TAT1TP and NaMTP or 5FMTP as competent ribonucleoside triphosphates for its retrieval. Upon transformation with the same plasmids used above, 10 μM dTPT3TP and 25 μM dCNMOTP were provided in the growth media, which was then also supplemented with TAT1TP at concentrations ranging from 100 μM to 12.5 μM, and either NaMTP or 5FMTP at concentrations ranging from 200 μM to 12.5 μM, all in series of 2-fold dilutions, and after the addition of 1 mM AzK, the cells were induced to express sfGFP. […] In both cases, fluorescence was higher at lower concentrations of NaMTP or 5FMTP (due to increased production of contaminating natural sfGFP, see below). Additionally, cells generally produced higher fluorescence at higher concentrations of TAT1TP. […] Protein production was again quantified via the gel shift assay (FIG. 6C and FIG. 6D). Generally, as the concentration of NaMTP decreased below 200 μM, incrementally lower fidelity of AzK incorporation into sfGFP was observed, while with use of 5FMTP this reduction in fidelity was only observed below a concentration of 50 μM. Clearly lower concentrations of 5FMTP can be used without compromising fidelity. Cells provided with a high concentration of 5FMTP (≥50 µM) produced high protein shifts at all concentrations of TAT1TP explored (100 μM, 50 μM, 25 μM, or 12.5 μM).
Optimization of in vivo Translation Conditions. An overnight culture of the SSO strain ML2 carrying the pGEX-MbPylRS TetR plasmid was grown in 2×YT supplemented with 50 mM potassium phosphate, […] chloramphenicol and 100 μg/mL carbenicillin (herein referred to in this section as “media”), then diluted back to an OD600 of 0.03 in the same media and grown to an OD600 of 0.4-0.6. The culture was then chilled with shaking over ice-water for 15 min then pelleted by centrifugation at 3,200×g for 10 min. Cells were then resuspended and washed with ice-cold ddH2O twice then resuspended in ice-cold ddH2O to an OD600 of 55-65. The electrocompetent cells (50 μL) and ˜1 ng of Golden Gate assembled plasmid with the UBP within the sfGFP and tRNAPyl genes (see Golden Gate Assembly of Plasmids) were transferred to a pre-chilled electroporation cuvette (0.2-cm-gap), then electroporated (Gene Pulser II; Bio-Rad) according to manufacturer's recommendations (voltage […], capacitor 2.5 μF, resistor 200Ω), and then immediately diluted with 950 μL of media. […] The culture was monitored for cell growth (Envision 2103 Multilabel Plate Reader with a 590/20 nm filter) and then collected at an OD600˜1.0. […]

COc1cc(C)c(F)cc1[C@@H]1O[C@H](COP(=O)(O)OP(=O)(O)OP(=O)(O)O)[C@@H](O)[C@H]1O [Compound 5FMTP]
Concentration for combined optimization of protein purity and yield (5FMTP and TAT1TP pair): 50 µM | XTP concentration below which lower fidelity of AzK incorporation into sfGFP was observed (with TAT1TP 12.5-100 μM): 50 µM
